In patent US6426369B1, “Oxethazaine as antimicrobial agent” (Eisai Co., Ltd., priority 1997, dated 2002):
≈ marks a conversion by molar mass, not a printed value.

Assays:
[1] = system: H. pylori; test: Antimicrobial activity test 1: anti-H. pylori activity of a single compound (agar plate method); format: cell-based, Helicobacter pylori; conditions: for MIC: Helicobacter pylori
[2] = system: H. pylori; test: Antimicrobial activity test 3: oxethazaine in combination with compound (II), checker board method; format: cell-based; conditions: Helicobacter pylori
Description: In each Table, the concentration of oxethazaine is shown vertically, and the concentration of compound (II) is shown horizontally. In each Table, “−” indicates the inhibited growth of H. pylori (presence of antimicrobial activity), and “+” indicates the growth of H. pylori (absence of antimicrobial activity). […] It is assumed to be present when the MIC of either oxethazaine or PPI is reduced by ½ (when anti-H. pylori activity is not recognized when the concentrations of both oxethazaine and PPI are reduced to ¼, but anti-H. pylori activity is recognized when the concentration of one compound is reduced to ¼ and simultaneously the concentration of the other compound is reduced to ½.).

[3] = system: H. pylori; test: Antimicrobial activity test 5: oxethazaine in combination with compound (IV) (lansoprazole), checker board method; format: cell-based, Helicobacter pylori
Description: The effect of oxethazaine used in combination with compound (IV) (lansoprazole) was examined in the same manner as in antimicrobial activity test 1, using the checker board method.
Hereinafter, the results are shown for each strain in the same manner as in antimicrobial activity test 3.

[4] = system: Gram-positive bacteria; test: Antimicrobial activity (MIC) of oxethazaine and structure analogues against Gram-positive bacteria; format: cell-based
[5] = Acute toxicity test, single oral dose, rats; format: in vivo, Slc:SD rats; conditions: for LD50: Slc:SD, rat, in vivo, po, single oral dose, read-out: LD50 (Oral administration)
Protocol: (§1) A toxicity test was conducted by orally administering a single dose into 7- to 8-weeks old Slc:SD rats and Slc:ICR mice, each group consisting of 5 females and 5 males (medium; physiological saline).

[6] = Acute toxicity test, single oral dose, mice; conditions: Slc:ICR, mouse, in vivo, read-out: LD50 (Oral administration)
Protocol: as §1

`CN(C(=O)CN(CCO)CC(=O)N(C)C(C)(C)Cc1ccccc1)C(C)(C)Cc1ccccc1` [Oxethazaine, 2,2′-[(2-hydroxyethyl)amino]bis[N-(1,1-dimethyl-2-phenylethyl)-N-methylacetamide]] gave an MIC ([1]; NCTC11637, strain NCTC11637, read-out: MIC (growth inhibition)) of 25 µg/mL (≈ 53.5 µM), an MIC ([1]; NCTC11639, strain NCTC11639, read-out: MIC (growth inhibition)) of 50 µg/mL (≈ 107 µM) and an MIC ([1]; NCTC11916, strain NCTC11916, read-out: MIC (growth inhibition)) of 25 µg/mL (≈ 53.5 µM). It also gave an MIC ([1]; strain 89-355, read-out: MIC (growth inhibition)) of 12.5 µg/mL (≈ 26.7 µM), an MIC ([1]; strain 89-357, read-out: MIC (growth inhibition)) of 25 µg/mL (≈ 53.5 µM) and an MIC ([1]; strain 89-360 (1), read-out: MIC (growth inhibition)) of 25 µg/mL (≈ 53.5 µM). It also gave an MIC ([1]; strain 89-360, read-out: MIC (growth inhibition)) of 25 µg/mL (≈ 53.5 µM), an MIC ([1]; strain 90-384, read-out: MIC (growth inhibition)) of 25 µg/mL (≈ 53.5 µM) and an MIC ([1]; strain 90-388 (1), read-out: MIC (growth inhibition)) of 25 µg/mL (≈ 53.5 µM). For the same molecule, the MIC ([1]; strain 90-388, read-out: MIC (growth inhibition)) was 25 µg/mL (≈ 53.5 µM), the MIC ([1]; strain 90-390 (1), read-out: MIC (growth inhibition)) was 25 µg/mL (≈ 53.5 µM) and the MIC ([1]; strain 90-390, read-out: MIC (growth inhibition)) was 25 µg/mL (≈ 53.5 µM). It also gave an MIC ([1]; strain 90-392, read-out: MIC (growth inhibition)) of 25 µg/mL (≈ 53.5 µM), an MIC ([1]; strain 90-397 (first line, r19), read-out: MIC (growth inhibition)) of 25 µg/mL (≈ 53.5 µM) and an MIC ([1]; strain 90-397 (second line, r25), read-out: MIC (growth inhibition)) of 25 µg/mL (≈ 53.5 µM). For the same molecule, the MIC ([1]; strain 90-407 (1), read-out: MIC (growth inhibition)) was 25 µg/mL (≈ 53.5 µM), the MIC ([1]; strain 90-407, read-out: MIC (growth inhibition)) was 25 µg/mL (≈ 53.5 µM) and the MIC ([1]; strain 90-411, read-out: MIC (growth inhibition)) was 25 µg/mL (≈ 53.5 µM). It also gave an MIC ([1]; strain 90-414 (1), read-out: MIC (growth inhibition)) of 25 µg/mL (≈ 53.5 µM), an MIC ([1]; strain 90-414, read-out: MIC (growth inhibition)) of 25 µg/mL (≈ 53.5 µM) and an MIC ([1]; strain 90-428, read-out: MIC (growth inhibition)) of 25 µg/mL (≈ 53.5 µM). The MIC ([1]; strain EH12, read-out: MIC (growth inhibition)) was 25 µg/mL (≈ 53.5 µM), the MIC ([1]; strain EH13, read-out: MIC (growth inhibition)) was 25 µg/mL (≈ 53.5 µM) and the MIC ([1]; strain EH16, read-out: MIC (growth inhibition)) was 25 µg/mL (≈ 53.5 µM). The MIC ([1]; strain EH26, read-out: MIC (growth inhibition)) was 25 µg/mL (≈ 53.5 µM), the MIC ([1]; summary of the strains of antimicrobial activity test 1, read-out: MIC for each strain) was about 25 µg/mL (≈ 53.5 µM) and the anti-H. pylori activity ([1]; conclusion from test 1) was “excellent anti-H. pylori activity”. The MIC ([2]; NCTC11637, NCTC 11637) was 25 µg/mL, the MIC ([2]; NCTC11639, NCTC 11639) was 50 µg/mL and the “effect of combined use” value ([3]; strain 90-392) was 90-392 (additive effect). The “effect of combined use” value ([3]; strain 90-397) was 90-397 (synergism), the “effect of combined use” value ([3]; strain 90-414) was 90-414 (synergism) and the “effect of combined use” value ([3]; strain 90-414(1)) was 90-414(1) (synergism). It also gave an MIC ([4]; Enterococcus faecalis, E. faecalis RIMD 3116001) of 25 µg/mL (≈ 53.5 µM), an MIC ([4]; Staphylococcus aureus, FDA209, S. aureus FDA 209-P) of 12.5 µg/mL (≈ 26.7 µM) and an MIC ([4]; Staphylococcus epidermidis, ATCC12228, S. epidermidis ATCC 12228) of 6.25 µg/mL (≈ 13.4 µM). The “effect on Gram-positive bacteria” value ([4]; conclusion) was “excellent effect”, the LD50 ([5]; female, Rat ♀) was 1070 mg/kg and the LD50 ([5]; male, Rat ♂) was at least 1000 mg/kg. For the same molecule, the “LD50 values relative to clinical doses” value ([5]; oral, rats and mice, clinical doses 15 to 40 mg/day) was “about 5000 times”, the LD50 ([6]; female, Mouse ♀) was at least 1000 mg/kg and the LD50 ([6]; male, Mouse ♂) was 1230 mg/kg.
